According to paper PMC4767141, “Discovery of Potent, Orally Bioavailable, Small-Molecule Inhibitors of WNT Signaling from a Cell-Based Pathway Screen” (Journal of Medicinal Chemistry, 2015):

Key:
[1] = target: T1, PHKGAMMA2 (Homo sapiens, UniProt P15735); test: Millipore kinase panel; assay type: biochemical; conditions: read-out: % Control
T1 construct: purchased Millipore KinaseProfiler (kinases); Cerep (receptors and ion channels)

[2] = target: T2, 5-HT3 (h) (Homo sapiens, UniProt P46098); test: CEREP binding panel; conditions: antagonist radioligand, read-out: % Inhibition of Control Specific Binding
T2 construct: purchased Millipore KinaseProfiler (kinases); Cerep (receptors and ion channels)

[3] = target: T3, RON (Homo sapiens, UniProt Q04912); test: Millipore kinase panel; assay type: biochemical; conditions: read-out: % Control
T3 construct: purchased Millipore KinaseProfiler (kinases); Cerep (receptors and ion channels)

[4] = target: T4, PRKAA1 (Homo sapiens, UniProt Q13131); test: Millipore kinase panel; assay type: biochemical; conditions: read-out: % Control
T4 construct: purchased Millipore KinaseProfiler (kinases); Cerep (receptors and ion channels)

[5] = target: T5, TEC ACTIVATED (Homo sapiens, UniProt P42680); test: Millipore kinase panel; assay type: biochemical; conditions: read-out: % Control
T5 construct: purchased Millipore KinaseProfiler (kinases); Cerep (receptors and ion channels)
T5 sequence (P42680 whole entry): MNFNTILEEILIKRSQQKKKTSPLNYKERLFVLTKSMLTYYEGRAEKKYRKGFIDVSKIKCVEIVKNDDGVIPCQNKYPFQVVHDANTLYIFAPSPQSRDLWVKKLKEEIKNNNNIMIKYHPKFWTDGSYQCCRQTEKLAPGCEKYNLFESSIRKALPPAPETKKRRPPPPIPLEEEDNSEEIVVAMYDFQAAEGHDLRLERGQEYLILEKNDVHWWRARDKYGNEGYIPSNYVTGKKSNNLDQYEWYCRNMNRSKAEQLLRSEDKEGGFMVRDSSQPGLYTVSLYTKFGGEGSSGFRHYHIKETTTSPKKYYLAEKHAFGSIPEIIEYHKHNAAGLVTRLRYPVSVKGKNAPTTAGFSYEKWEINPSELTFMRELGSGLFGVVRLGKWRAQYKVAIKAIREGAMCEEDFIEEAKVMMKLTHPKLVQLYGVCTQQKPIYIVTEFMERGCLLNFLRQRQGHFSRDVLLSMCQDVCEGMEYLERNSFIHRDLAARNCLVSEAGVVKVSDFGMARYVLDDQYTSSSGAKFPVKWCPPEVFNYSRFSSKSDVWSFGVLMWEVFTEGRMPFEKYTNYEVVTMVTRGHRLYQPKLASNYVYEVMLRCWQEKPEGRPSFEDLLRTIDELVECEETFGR

[6] = target: T6, EPHB4 (Homo sapiens, UniProt P54760); test: Millipore kinase panel; assay type: biochemical; conditions: read-out: % Control
T6 construct: purchased Millipore KinaseProfiler (kinases); Cerep (receptors and ion channels)

[7] = target: T7, MNK2 (Homo sapiens, UniProt Q9HBH9); test: Millipore kinase panel; assay type: biochemical; conditions: read-out: % Control
T7 construct: purchased Millipore KinaseProfiler (kinases); Cerep (receptors and ion channels)

[8] = target: T8, ERBB4 (Homo sapiens, UniProt Q15303); test: Millipore kinase panel; assay type: biochemical; conditions: read-out: % Control
T8 construct: purchased Millipore KinaseProfiler (kinases); Cerep (receptors and ion channels)

[9] = target: T9, BRK (Homo sapiens, UniProt Q13882); test: Millipore kinase panel; assay type: biochemical; conditions: read-out: % Control
T9 construct: purchased Millipore KinaseProfiler (kinases); Cerep (receptors and ion channels)

[10] = target: T10, FGFR3 (Homo sapiens, UniProt P22607); test: Millipore kinase panel; assay type: biochemical; conditions: read-out: % Control
T10 construct: purchased Millipore KinaseProfiler (kinases); Cerep (receptors and ion channels)
T10 sequence (P22607 23-806): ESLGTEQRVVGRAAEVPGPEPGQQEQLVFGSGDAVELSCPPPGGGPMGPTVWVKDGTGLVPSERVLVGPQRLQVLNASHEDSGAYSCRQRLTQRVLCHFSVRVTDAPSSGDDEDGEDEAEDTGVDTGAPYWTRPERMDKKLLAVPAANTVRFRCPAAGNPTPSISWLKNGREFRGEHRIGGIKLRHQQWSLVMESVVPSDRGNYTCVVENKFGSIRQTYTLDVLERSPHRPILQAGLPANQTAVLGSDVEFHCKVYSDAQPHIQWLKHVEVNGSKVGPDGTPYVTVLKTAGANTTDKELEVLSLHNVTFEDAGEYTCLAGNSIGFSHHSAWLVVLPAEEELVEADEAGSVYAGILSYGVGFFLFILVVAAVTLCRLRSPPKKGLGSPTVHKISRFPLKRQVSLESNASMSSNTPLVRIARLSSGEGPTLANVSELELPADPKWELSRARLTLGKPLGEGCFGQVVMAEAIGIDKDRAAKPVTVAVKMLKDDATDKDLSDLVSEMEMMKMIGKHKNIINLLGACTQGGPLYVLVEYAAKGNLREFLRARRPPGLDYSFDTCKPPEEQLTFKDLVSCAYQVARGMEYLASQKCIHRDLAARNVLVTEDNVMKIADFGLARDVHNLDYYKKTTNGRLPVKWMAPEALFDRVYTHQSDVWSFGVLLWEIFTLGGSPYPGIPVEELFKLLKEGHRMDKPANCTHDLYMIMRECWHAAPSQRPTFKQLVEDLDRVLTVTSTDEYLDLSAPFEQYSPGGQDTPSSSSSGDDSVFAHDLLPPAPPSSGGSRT

[11] = target: T11, PAK6 (Homo sapiens, UniProt Q9NQU5); test: Millipore kinase panel; assay type: biochemical; conditions: read-out: % Control
T11 construct: purchased Millipore KinaseProfiler (kinases); Cerep (receptors and ion channels)
T11 sequence (Q9NQU5 whole entry): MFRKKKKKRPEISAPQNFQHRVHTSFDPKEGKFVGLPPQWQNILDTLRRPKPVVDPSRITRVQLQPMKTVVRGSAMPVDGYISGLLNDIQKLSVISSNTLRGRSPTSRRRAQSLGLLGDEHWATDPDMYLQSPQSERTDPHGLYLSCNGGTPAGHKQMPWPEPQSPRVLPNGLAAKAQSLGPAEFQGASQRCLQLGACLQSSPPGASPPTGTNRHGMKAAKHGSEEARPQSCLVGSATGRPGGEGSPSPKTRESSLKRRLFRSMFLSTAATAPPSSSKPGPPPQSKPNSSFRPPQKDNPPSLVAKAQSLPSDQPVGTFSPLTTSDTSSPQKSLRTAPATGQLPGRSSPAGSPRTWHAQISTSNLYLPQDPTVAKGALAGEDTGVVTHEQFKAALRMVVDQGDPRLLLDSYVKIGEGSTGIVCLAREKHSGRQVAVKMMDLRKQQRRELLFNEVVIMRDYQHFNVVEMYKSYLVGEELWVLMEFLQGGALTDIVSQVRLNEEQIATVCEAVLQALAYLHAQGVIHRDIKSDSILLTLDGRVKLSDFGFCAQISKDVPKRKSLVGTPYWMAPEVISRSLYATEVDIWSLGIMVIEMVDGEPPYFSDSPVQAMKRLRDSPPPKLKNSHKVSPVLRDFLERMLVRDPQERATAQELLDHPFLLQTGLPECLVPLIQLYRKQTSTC

[12] = target: T12, TRKA (Homo sapiens, UniProt P04629); test: Millipore kinase panel; assay type: biochemical; conditions: read-out: % Control
T12 construct: purchased Millipore KinaseProfiler (kinases); Cerep (receptors and ion channels)

[13] = target: T13, LKB1 (Homo sapiens, UniProt Q15831); test: Millipore kinase panel; assay type: biochemical; conditions: read-out: % Control
T13 construct: purchased Millipore KinaseProfiler (kinases); Cerep (receptors and ion channels)

[14] = target: T14, β1 (h) (Homo sapiens, UniProt P08588); test: CEREP binding panel; conditions: agonist radioligand, read-out: % Inhibition of Control Specific Binding
T14 construct: purchased Millipore KinaseProfiler (kinases); Cerep (receptors and ion channels)

[15] = target: T15, PKD2 (Homo sapiens, UniProt Q9BZL6); test: Millipore kinase panel; assay type: biochemical; conditions: read-out: % Control
T15 construct: purchased Millipore KinaseProfiler (kinases); Cerep (receptors and ion channels)

[16] = target: T16, TIE2 (Homo sapiens, UniProt Q02763); test: Millipore kinase panel; assay type: biochemical; conditions: read-out: % Control
T16 construct: purchased Millipore KinaseProfiler (kinases); Cerep (receptors and ion channels)

[17] = target: T17, PKCALPHA (Homo sapiens, UniProt P17252); test: Millipore kinase panel; assay type: biochemical; conditions: read-out: % Control
T17 construct: purchased Millipore KinaseProfiler (kinases); Cerep (receptors and ion channels)

[18] = target: T18, JAK3 (Homo sapiens, UniProt P52333); test: Millipore kinase panel; assay type: biochemical; conditions: read-out: % Control
T18 construct: purchased Millipore KinaseProfiler (kinases); Cerep (receptors and ion channels)
T18 sequence (P52333 whole entry): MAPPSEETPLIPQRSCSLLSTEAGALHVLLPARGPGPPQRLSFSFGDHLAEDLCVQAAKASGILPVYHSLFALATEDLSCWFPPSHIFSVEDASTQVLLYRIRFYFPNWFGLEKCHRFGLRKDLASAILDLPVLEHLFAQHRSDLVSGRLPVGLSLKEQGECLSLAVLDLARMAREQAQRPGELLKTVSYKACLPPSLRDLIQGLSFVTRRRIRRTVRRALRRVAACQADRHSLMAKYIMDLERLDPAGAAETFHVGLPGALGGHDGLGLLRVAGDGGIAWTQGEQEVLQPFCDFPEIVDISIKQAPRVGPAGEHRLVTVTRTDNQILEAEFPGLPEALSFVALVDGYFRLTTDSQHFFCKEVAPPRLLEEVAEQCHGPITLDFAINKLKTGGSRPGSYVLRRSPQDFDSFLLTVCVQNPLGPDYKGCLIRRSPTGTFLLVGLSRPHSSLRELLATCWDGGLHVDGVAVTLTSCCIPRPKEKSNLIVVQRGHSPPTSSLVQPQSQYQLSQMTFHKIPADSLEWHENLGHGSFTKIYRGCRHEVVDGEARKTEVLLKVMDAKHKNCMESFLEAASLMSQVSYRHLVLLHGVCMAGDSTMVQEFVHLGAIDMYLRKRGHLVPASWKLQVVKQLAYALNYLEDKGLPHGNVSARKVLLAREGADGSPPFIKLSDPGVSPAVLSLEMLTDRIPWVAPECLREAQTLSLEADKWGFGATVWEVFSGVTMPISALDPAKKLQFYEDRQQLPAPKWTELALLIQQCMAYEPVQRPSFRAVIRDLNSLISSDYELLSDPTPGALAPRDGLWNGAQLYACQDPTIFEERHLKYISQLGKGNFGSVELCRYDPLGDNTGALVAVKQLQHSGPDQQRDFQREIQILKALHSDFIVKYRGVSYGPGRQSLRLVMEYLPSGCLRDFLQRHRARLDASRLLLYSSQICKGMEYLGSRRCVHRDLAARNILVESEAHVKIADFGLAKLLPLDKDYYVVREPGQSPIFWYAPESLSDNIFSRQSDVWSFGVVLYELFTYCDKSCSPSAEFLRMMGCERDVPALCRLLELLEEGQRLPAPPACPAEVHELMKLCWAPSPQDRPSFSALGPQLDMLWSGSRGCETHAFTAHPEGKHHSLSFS

[19] = target: T19, CHK2 (Homo sapiens, UniProt O96017); test: Millipore kinase panel; assay type: biochemical; conditions: read-out: % Control
T19 construct: purchased Millipore KinaseProfiler (kinases); Cerep (receptors and ion channels)

[20] = target: T20, HASPIN (Homo sapiens, UniProt Q8TF76); test: Millipore kinase panel; assay type: biochemical; conditions: read-out: % Control
T20 construct: purchased Millipore KinaseProfiler (kinases); Cerep (receptors and ion channels)

[21] = target: T21, CLK3 (Homo sapiens, UniProt P49761); test: Millipore kinase panel; assay type: biochemical; conditions: read-out: % Control
T21 construct: purchased Millipore KinaseProfiler (kinases); Cerep (receptors and ion channels)

[22] = target: T22, CCK1 (CCKA) (h) (Homo sapiens, UniProt P32238); test: CEREP binding panel; conditions: agonist radioligand, read-out: % Inhibition of Control Specific Binding
T22 construct: purchased Millipore KinaseProfiler (kinases); Cerep (receptors and ion channels)

[23] = target: T23, LCK (Homo sapiens, UniProt P06239); test: Millipore kinase panel; assay type: biochemical
T23 construct: purchased Millipore
T23 sequence (P06239 whole entry): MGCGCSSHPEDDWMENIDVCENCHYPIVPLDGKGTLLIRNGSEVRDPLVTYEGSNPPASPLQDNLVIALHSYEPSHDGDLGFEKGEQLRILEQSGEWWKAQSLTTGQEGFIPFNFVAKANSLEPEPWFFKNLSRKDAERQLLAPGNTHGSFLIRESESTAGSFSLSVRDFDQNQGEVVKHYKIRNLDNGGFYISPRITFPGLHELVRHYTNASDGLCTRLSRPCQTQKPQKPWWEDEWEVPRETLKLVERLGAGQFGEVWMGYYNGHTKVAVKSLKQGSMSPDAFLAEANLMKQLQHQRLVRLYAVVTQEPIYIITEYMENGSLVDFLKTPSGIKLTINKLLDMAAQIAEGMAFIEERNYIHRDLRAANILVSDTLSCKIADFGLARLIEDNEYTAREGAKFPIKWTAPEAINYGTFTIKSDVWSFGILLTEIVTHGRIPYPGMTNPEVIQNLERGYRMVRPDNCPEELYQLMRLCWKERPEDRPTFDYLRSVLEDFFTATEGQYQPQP

[24] = target: T24, LOK (Homo sapiens, UniProt O94804); test: Millipore kinase panel; assay type: biochemical; conditions: read-out: % Control
T24 construct: purchased Millipore KinaseProfiler (kinases); Cerep (receptors and ion channels)

[25] = target: T25, MRCKALPHA (Homo sapiens, UniProt Q5VT25); test: Millipore kinase panel; assay type: biochemical; conditions: read-out: % Control
T25 construct: purchased Millipore KinaseProfiler (kinases); Cerep (receptors and ion channels)

[26] = target: T26, IKKALPHA (Homo sapiens, UniProt O15111); test: Millipore kinase panel; assay type: biochemical; conditions: read-out: % Control
T26 construct: purchased Millipore KinaseProfiler (kinases); Cerep (receptors and ion channels)

[27] = target: T27, ETA (h) (Homo sapiens, UniProt P25101); test: CEREP binding panel; conditions: agonist radioligand, read-out: % Inhibition of Control Specific Binding
T27 construct: purchased Millipore KinaseProfiler (kinases); Cerep (receptors and ion channels)

[28] = target: T28, ZIPK (Homo sapiens, UniProt O43293); test: Millipore kinase panel; assay type: biochemical; conditions: read-out: % Control
T28 construct: purchased Millipore KinaseProfiler (kinases); Cerep (receptors and ion channels)
T28 sequence (O43293 whole entry): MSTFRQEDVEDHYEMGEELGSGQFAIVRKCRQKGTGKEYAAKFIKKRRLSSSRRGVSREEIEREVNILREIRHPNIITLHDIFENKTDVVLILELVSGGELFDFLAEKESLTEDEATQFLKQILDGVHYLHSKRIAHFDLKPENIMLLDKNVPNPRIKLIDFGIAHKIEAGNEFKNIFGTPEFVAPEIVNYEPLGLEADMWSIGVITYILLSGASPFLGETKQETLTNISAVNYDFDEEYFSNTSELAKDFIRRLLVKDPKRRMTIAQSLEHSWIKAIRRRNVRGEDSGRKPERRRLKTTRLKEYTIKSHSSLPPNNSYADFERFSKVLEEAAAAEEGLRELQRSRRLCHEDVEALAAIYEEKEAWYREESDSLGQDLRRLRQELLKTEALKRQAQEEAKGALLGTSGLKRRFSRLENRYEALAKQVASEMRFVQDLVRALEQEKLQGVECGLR

[29] = target: T29, μ (MOP) (h) (Homo sapiens, UniProt P35372); test: CEREP binding panel; conditions: 10 μM, agonist radioligand
T29 construct: purchased Millipore KinaseProfiler (kinases); Cerep (receptors and ion channels)

[30] = target: T30, PAK5 (Homo sapiens, UniProt Q9P286); test: Millipore kinase panel; assay type: biochemical; conditions: read-out: % Control
T30 construct: purchased Millipore KinaseProfiler (kinases); Cerep (receptors and ion channels)

[31] = target: T31, ULK3 (Homo sapiens, UniProt Q6PHR2); test: Millipore kinase panel; assay type: biochemical; conditions: read-out: % Control
T31 construct: purchased Millipore KinaseProfiler (kinases); Cerep (receptors and ion channels)

[32] = target: T32, CXCR2 (IL-8B) (h) (Homo sapiens, UniProt P25025); test: CEREP binding panel; conditions: agonist radioligand, read-out: % Inhibition of Control Specific Binding
T32 construct: purchased Millipore KinaseProfiler (kinases); Cerep (receptors and ion channels)

[33] = tested on: Ca2+ channel (L, verapamil site) (phenylalkylamine); test: CEREP binding panel; conditions: 10 μM, antagonist radioligand
[34] = target: T33, SAPK3 (Homo sapiens, UniProt P53778); test: Millipore kinase panel; assay type: biochemical; conditions: read-out: % Control
T33 construct: purchased Millipore KinaseProfiler (kinases); Cerep (receptors and ion channels)
T33 sequence (P53778 whole entry): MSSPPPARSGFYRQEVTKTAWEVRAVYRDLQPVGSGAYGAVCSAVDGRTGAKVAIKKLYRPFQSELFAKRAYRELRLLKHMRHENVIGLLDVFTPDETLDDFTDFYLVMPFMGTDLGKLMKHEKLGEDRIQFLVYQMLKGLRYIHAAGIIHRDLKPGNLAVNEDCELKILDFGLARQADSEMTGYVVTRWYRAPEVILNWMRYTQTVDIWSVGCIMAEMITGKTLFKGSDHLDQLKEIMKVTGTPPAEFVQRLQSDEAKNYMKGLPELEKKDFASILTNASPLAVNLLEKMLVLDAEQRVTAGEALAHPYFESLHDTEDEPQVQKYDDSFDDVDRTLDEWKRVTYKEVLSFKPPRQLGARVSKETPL

[35] = target: T34, EPHB1 (Homo sapiens, UniProt P54762); test: Millipore kinase panel; assay type: biochemical; conditions: read-out: % Control
T34 construct: purchased Millipore KinaseProfiler (kinases); Cerep (receptors and ion channels)

[36] = target: T35, PLK1 (Homo sapiens, UniProt P53350); test: Millipore kinase panel; assay type: biochemical; conditions: read-out: % Control
T35 construct: purchased Millipore KinaseProfiler (kinases); Cerep (receptors and ion channels)

[37] = tested on: GABA (non-selective); test: CEREP binding panel; conditions: 10 μM, agonist radioligand
[38] = target: T36, GCK (Homo sapiens, UniProt Q12851); test: Millipore kinase panel; assay type: biochemical; conditions: read-out: % Control
T36 construct: purchased Millipore KinaseProfiler (kinases); Cerep (receptors and ion channels)

[39] = target: T37, 5-HT6 (h) (Homo sapiens, UniProt P50406); test: CEREP binding panel; conditions: agonist radioligand, read-out: % Inhibition of Control Specific Binding
T37 construct: purchased Millipore KinaseProfiler (kinases); Cerep (receptors and ion channels)
T37 sequence (P50406 whole entry): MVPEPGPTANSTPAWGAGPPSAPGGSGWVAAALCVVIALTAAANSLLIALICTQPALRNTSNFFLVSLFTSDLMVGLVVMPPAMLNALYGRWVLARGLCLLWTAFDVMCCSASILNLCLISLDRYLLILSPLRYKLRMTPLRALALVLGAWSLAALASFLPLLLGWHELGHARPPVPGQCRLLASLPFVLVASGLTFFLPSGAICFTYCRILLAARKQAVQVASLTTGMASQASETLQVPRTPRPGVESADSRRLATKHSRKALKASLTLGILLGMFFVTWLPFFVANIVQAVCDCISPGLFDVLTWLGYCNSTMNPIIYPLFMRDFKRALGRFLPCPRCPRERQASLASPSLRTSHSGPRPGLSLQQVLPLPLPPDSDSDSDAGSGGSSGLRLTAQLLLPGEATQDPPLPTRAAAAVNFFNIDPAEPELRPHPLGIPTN

[40] = target: T38, MINK (Homo sapiens, UniProt Q8N4C8); test: Millipore kinase panel; assay type: biochemical; conditions: read-out: % Control
T38 construct: purchased Millipore KinaseProfiler (kinases); Cerep (receptors and ion channels)

[41] = target: T39, GRK7 (Homo sapiens, UniProt Q8WTQ7); test: Millipore kinase panel; assay type: biochemical; conditions: read-out: % Control
T39 construct: purchased Millipore KinaseProfiler (kinases); Cerep (receptors and ion channels)

[42] = tested on: Na+ channel (site 2); test: CEREP binding panel; conditions: 10 μM, antagonist radioligand
[43] = target: T40, RSK4 (Homo sapiens, UniProt Q9UK32); test: Millipore kinase panel; assay type: biochemical; conditions: read-out: % Control
T40 construct: purchased Millipore KinaseProfiler (kinases); Cerep (receptors and ion channels)

[44] = target: T41, MELK (Homo sapiens, UniProt Q14680); test: Millipore kinase panel; assay type: biochemical; conditions: read-out: % Control
T41 construct: purchased Millipore KinaseProfiler (kinases); Cerep (receptors and ion channels)

With Cn1cc(-c2ccc(-c3cncc(Cl)c3N3CCC4(CCNC4=O)CC3)cc2)cn1 [Compound 74, 8-(3-Chloro-5-(4-(1-methyl-1H-pyrazol-4-yl)phenyl)pyridin-4-yl)-2,8-diazaspiro[4.5]decan-1-one] the remaining activity at 1 µM [1] was 4%, the inhibition at 10 µM [2] was 9% and the remaining activity at 1 µM [3] was -9%. It also gave a remaining activity at 1 µM [4] of 2%, a remaining activity at 1 µM [5] of 14% and a remaining activity at 1 µM [6] of 10%. The remaining activity at 1 µM [7] was 2%, the remaining activity at 1 µM [8] was 0% and the remaining activity at 1 µM [9] was 11%. The remaining activity at 1 µM [10] was -4%, the remaining activity at 1 µM [11] was -2% and the remaining activity at 1 µM [12] was -7%. The remaining activity at 1 µM [13] was 5%, the inhibition at 10 µM [14] was 5% and the remaining activity at 1 µM [15] was 7%. The remaining activity at 1 µM [16] was -25%, the remaining activity at 1 µM [17] was -5% and the remaining activity at 1 µM [18] was 0%. For the same compound, the remaining activity at 1 µM [19] was 7%, the remaining activity at 1 µM [20] was -11% and the remaining activity at 1 µM [21] was -8%. The inhibition at 10 µM [22] was 2%, the IC50 ([23]; ATP at Km) was > 10 µM and the remaining activity at 1 µM ([23]; read-out: % Control) was 10%. The remaining activity at 1 µM [24] was -6%, the remaining activity at 1 µM [25] was -4% and the remaining activity at 1 µM [26] was 4%. The inhibition at 10 µM [27] was -9%, the remaining activity at 1 µM [28] was 6% and the “% Inhibition of Control Specific Binding” value [29] was 42%. For the same compound, the remaining activity at 1 µM [30] was 4%, the remaining activity at 1 µM [31] was -2% and the inhibition at 10 µM [32] was -6%. The “% Inhibition of Control Specific Binding” value [33] was 7%, the remaining activity at 1 µM [34] was 13% and the remaining activity at 1 µM [35] was -7%. The remaining activity at 1 µM [36] was -4%, the “% Inhibition of Control Specific Binding” value [37] was 5% and the remaining activity at 1 µM [38] was -28%. The inhibition at 10 µM [39] was 3%, the remaining activity at 1 µM [40] was -12% and the remaining activity at 1 µM [41] was 7%. The “% Inhibition of Control Specific Binding” value [42] was 29%, the remaining activity at 1 µM [43] was -17% and the remaining activity at 1 µM [44] was 32%.
